In US20130344026A1, “Dimeric Smac Mimetics” (priority 2009, published 2013):
Where two headings read alike, the source gives them in different places.

Test system: HCC461
Test: cell viability assay in HCC461, compound alone
Format: cell-based
[1] = HCC461, HCC461 cells, compound alone, read-out: IC50 (uM) in cell viability assay in HCC461
[2] = HCC461, HCC461, Tables 15-18, read-out: IC50 (uM) in cell viability assay in HCC461
[3] = HCC461, HCC461, Tables 6-9, read-out: IC50 (μM) in cell viability assay in HCC461

SMILES	IC50 [1] [µM]	other results
CN[C@@H](C)C(=O)N[C@H](C(=O)N1C[C@@H](NC(=O)c2cc(NC(C)=O)cc(C(=O)N[C@H]3C[C@@H](C(=O)N[C@@H]4CCCc5ccccc54)N(C(=O)[C@@H](NC(=O)[C@H](C)NC)C(C)(C)C)C3)c2)C[C@H]1C(=O)N[C@@H]1CCCc2ccccc21)C(C)(C)C [Compound P3-42]	0.011	–
CCC[C@H](NC)C(=O)N[C@H](C(=O)N1CC[C@H](NC(=O)c2cccc(C(=O)N[C@H]3C[C@@H](C(=O)N[C@@H]4CCCc5ccccc54)N(C(=O)[C@@H](NC(C)[C@H](C)NC)C(C)C)C3)c2)C1)C(C)(C)C (stereo partly drawn) [Compound H-4]	–	IC50 [2]: 1.69 µM
CN[C@@H](C)C(=O)N[C@@H](CCCCCC[C@H](NC(=O)[C@H](C)NC)C(=O)N1CCC[C@H]1C(=O)NCc1ccc(F)cc1)C(=O)N1CCC[C@H]1C(=O)NCc1ccc(F)cc1 [Compound P2-7]	–	IC50 [2]: 0.17 µM
CN[C@@H](C)C(=O)N[C@H](C(=O)N1C[C@@H](NC(=O)c2ccc(-c3ccc(C(=O)N[C@H]4C[C@@H](C(=O)NC5CCCc6ccccc65)N(C(=O)[C@@H](NC(=O)[C@H](C)NC)C(C)(C)C)C4)cn3)nc2)CC1C(=O)N[C@@H]1CCCc2ccccc21)C(C)(C)C (stereo partly drawn) [Compound P3-40]	0.005	–
CN[C@@H](C)C(=O)N[C@@H](CCC(=O)N[C@H]1CC(C(=O)N[C@H](C)c2ccccc2)N(C(=O)[C@@H](NC(=O)[C@H](C)NC)C(C)(C)C)C1)C(=O)N[C@H](C(=O)N[C@@H](C)C(C)C)C(C)(C)C (stereo partly drawn) [Compound 164]	–	IC50 [3]: > 30 µM
CN[C@@H](C)C(=O)N[C@@H](CCNC(=O)c1cc(N)cc(C(=O)NCC[C@H](NC(=O)[C@H](C)NC)C(=O)N2CCC[C@H]2C(=O)N[C@@H]2CCCc3ccccc32)c1)C(=O)N1CCC[C@H]1C(=O)N[C@@H]1CCCc2ccccc21 [Compound P2-27]	–	IC50 [2]: 0.165 µM
CN[C@@H](C)C(=O)N[C@H](C(=O)N1C[C@@H](NC(=O)c2cccc(C(=O)N[C@H]3C[C@@H](C(=O)NC4CCCC5CCCCC54)N(C(=O)[C@@H](NC(=O)[C@H](C)NC)C(C)(C)C)C3)c2)C[C@H]1C(=O)NC1CCCC2CCCCC21)C(C)(C)C (stereo partly drawn) [Compound P3-59]	–	IC50 (HCC461 cells, compound alone, read-out: IC50 (uM) in cell viability assay in HCC461): 0.45 µM
CN[C@@H](C)C(=O)N[C@H](C(=O)N1C[C@@H](NC(=O)Cc2ccc(CC(=O)N[C@H]3C[C@@H](C(=O)N[C@@H]4CCCc5ccccc54)N(C(=O)[C@@H](NC(=O)[C@H](C)NC)C(C)(C)C)C3)cc2)C[C@H]1C(=O)N[C@@H]1CCCc2ccccc21)C(C)(C)C [Compound P3-18]	0.008	–
CN[C@@H](C)C(=O)N[C@@H](C)C(=O)N[C@H]1C[C@@H](C(=O)N[C@@H]2CCCc3ccccc32)N(C(=O)[C@@H](NC(=O)[C@H](C)NC)C(C)(C)C)C1 [Compound 146]	–	IC50 [3]: > 30 µM
CN[C@@H](C)C(=O)N[C@@H](CCC(=O)O)C(=O)N1C[C@@H](NC(=O)c2cccc(C(=O)N[C@H]3C[C@@H](C(=O)N[C@H](C)c4ccccc4)N(C(=O)[C@@H](NC(=O)[C@H](C)NC)C(C)(C)C)C3)c2)CC1C(=O)N[C@H](C)c1ccccc1 (stereo partly drawn) [Compound 148]	–	IC50 [3]: 0.622 µM
CN[C@@H](C)C(=O)N[C@H](C(=O)N1C[C@@H](n2cc(CNC(=O)NCc3cn([C@H]4C[C@@H](C(=O)N[C@@H]5CCCc6ccccc65)N(C(=O)[C@@H](NC(=O)[C@H](C)NC)C(C)(C)C)C4)nn3)nn2)C[C@H]1C(=O)N[C@@H]1CCCc2ccccc21)C(C)(C)C [Compound P3-5]	0.061	–
CN[C@@H](C)C(=O)N[C@H](C(=O)N1CCC[C@H]1C(=O)N[C@H](CNC(=O)[C@@H]1CC[C@](C)(C(=O)NC[C@@H](NC(=O)[C@@H]2CCCN2C(=O)[C@@H](NC(=O)[C@H](C)NC)C(C)(C)C)c2ccccc2)C1(C)C)c1ccccc1)C(C)(C)C [Compound P3-48]	0.183	–
CN[C@@H](C)C(=O)N[C@@H](CC#CC#CC[C@H](NC(=O)[C@H](C)NC)C(=O)N1CCC[C@H]1C(=O)NC1c2ccccc2-c2ccccc21)C(=O)N1CCC[C@H]1C(=O)NC1c2ccccc2-c2ccccc21 [Compound P2-5]	–	IC50 [2]: 0.091 µM
CN[C@@H](C)C(=O)N[C@H](C(=O)N1CCC[C@H]1C(=O)N[C@H](COCc1ccc(COC[C@@H](NC(=O)[C@@H]2CCCN2C(=O)[C@@H](NC(=O)[C@H](C)NC)C(C)(C)C)C2CCCCC2)cc1)C1CCCCC1)C(C)(C)C [Compound P4-17]	–	IC50 [2]: 0.015 µM
CC[C@H](NC)C(=O)N[C@@H](CC#CC#CC[C@H](NC(=O)[C@H](CC)NC)C(=O)N1CCC[C@H]1C(=O)N[C@@H]1CCCc2ccccc21)C(=O)N1CCC[C@H]1C(=O)N[C@@H]1CCCc2ccccc21 [Compound P2-9]	–	IC50 (HCC461, Tables 15-18, read-out: IC50 (uM) in cell viability assay in HCC461): 0.025 µM
CN[C@@H](C)C(=O)N[C@H](C(=O)N1CCC[C@H]1C(=O)N[C@H](CNC(=O)c1cccc(C(=O)NC[C@@H](NC(=O)[C@@H]2CCCN2C(=O)[C@@H](NC(=O)[C@H](C)NC)C(C)(C)C)c2ccccc2)c1)c1ccccc1)C(C)(C)C [Compound P4-11]	–	IC50 [2]: 0.068 µM
CN[C@@H](C)C(=O)N[C@H](C(=O)N1C[C@@H](NC(=O)c2cccc(C(=O)N[C@H]3C[C@@H](C(=O)N[C@H](C)C(C)C)N(C(=O)[C@@H](NC(=O)[C@H](C)NC)C(C)(C)C)C3)c2)C[C@H]1C(=O)N[C@@H]1CCCc2ccccc21)C(C)(C)C [Compound 132]	–	IC50 [3]: 0.017 µM
CN[C@@H](C)C(=O)NC(C(=O)N1CCC[C@H]1C(=O)NC1CCCc2ccccc21)c1ccc(C#Cc2ccc(C(NC(=O)[C@H](C)NC)C(=O)N3CCC[C@H]3C(=O)NC3CCCc4ccccc43)cc2)cc1 (stereo partly drawn) [Compound P2-1]	–	IC50 [2]: 0.018 µM
CN[C@@H](C)C(=O)NC(C(=O)N1C[C@@H](NC(=O)c2cccc(C(=O)N[C@H]3C[C@@H](C(=O)N[C@H](C)c4ccccc4)N(C(=O)[C@H](CCC(=O)OC)NC(=O)[C@H](CO)NC)C3)c2)CC1C(=O)N[C@@H]1CCCc2ccccc21)C(C)(C)C (stereo partly drawn) [Compound 154]	–	IC50 [3]: 3.6 µM
CN[C@@H](C)C(=O)N[C@@H](CCCCCC[C@H](NC(=O)[C@H](C)NC)C(=O)N1CCC[C@H]1C(=O)N(C)Cc1ccccc1)C(=O)N1CCC[C@H]1C(=O)N(C)Cc1ccccc1 [Compound P2-4]	–	IC50 [2]: 0.037 µM
CN[C@@H](C)C(=O)N[C@@H](CCCCCC[C@H](NC(=O)[C@H](C)NC)C(=O)N1CCC[C@H]1C(=O)NC1c2ccccc2-c2ccccc21)C(=O)N1CCC[C@H]1C(=O)NC1c2ccccc2-c2ccccc21 [Compound P2-6]	–	IC50 [2]: 0.024 µM
C#CC[C@H](NC(=O)[C@H](C)NC)C(=O)N1C[C@@H](NC(=O)c2cc(N)cc(C(=O)N[C@H]3C[C@@H](C(=O)N[C@@H]4CCCc5ccccc54)N(C(=O)[C@H](CC#C)NC(=O)[C@H](C)NC)C3)c2)C[C@H]1C(=O)N[C@@H]1CCCc2ccccc21 [Compound P3-62]	0.198	–

More lines, main results first:

IC50 [1] [µM]	SMILES	other results
0.01	CN[C@@H](C)C(=O)N[C@H](C(=O)N1C[C@@H](NC(=O)c2cccc(C(=O)N[C@H]3C[C@@H](C(=O)N[C@@H]4CCCc5ccccc54)N(C(=O)[C@@H](NC(=O)[C@H](C)NC)C4CCCCC4)C3)c2)C[C@H]1C(=O)N[C@@H]1CCCc2ccccc21)C1CCCCC1 [Compound P3-53]	–
0.07	CN[C@@H](C)C(=O)N[C@H](C(=O)N1C[C@@H](NC(=O)CCCC(=O)N[C@H]2C[C@@H](C(=O)NC3c4ccccc4-c4ccccc43)N(C(=O)[C@@H](NC(=O)[C@H](C)NC)C(C)(C)C)C2)C[C@H]1C(=O)NC1c2ccccc2-c2ccccc21)C(C)(C)C [Compound P3-3]	–
0.016	CN[C@@H](C)C(=O)N[C@H](C(=O)N1C[C@@H](NC(=O)c2cc(C(=O)N[C@H]3C[C@@H](C(=O)NC4c5ccccc5-c5ccccc54)N(C(=O)[C@@H](NC(=O)[C@H](C)NC)C(C)(C)C)C3)[nH]n2)C[C@H]1C(=O)NC1c2ccccc2-c2ccccc21)C(C)(C)C [Compound P3-63]	–
0.057	CN[C@@H](C)C(=O)N[C@H](C(=O)N1C[C@@H](NC(=O)c2cccc(C(=O)N[C@H]3C[C@@H](C(=O)N[C@H](C)C4CCCCC4)N(C(=O)[C@@H](NC(=O)[C@H](C)NC)C(C)(C)C)C3)c2)C[C@H]1C(=O)N[C@H](C)C1CCCCC1)C(C)(C)C [Compound P3-43]	–
0.073	CN[C@@H](CO)C(=O)N[C@H](C(=O)N1C[C@@H](NC(=O)c2cccc(C(=O)N[C@H]3C[C@@H](C(=O)N[C@H](C)c4ccccc4)N(C(=O)[C@@H](NC(=O)[C@H](CO)NC)C(C)C)C3)c2)C[C@H]1C(=O)N[C@H](C)c1ccccc1)C(C)C [Compound P3-89]	–
0.057	CN[C@@H](C)C(=O)N[C@H](C(=O)N1C[C@@H](NC(=O)c2cc(C(=O)N[C@H]3C[C@@H](C(=O)N[C@H](C)c4ccccc4)N(C(=O)[C@@H](NC(=O)[C@H](C)NC)C4CCCCC4)C3)[nH]n2)C[C@H]1C(=O)N[C@H](C)c1ccccc1)C1CCCCC1 [Compound P3-79]	–
0.02	CN[C@@H](C)C(=O)N[C@H](C(=O)N1C[C@@H](NC(=O)c2ccc(C(=O)N[C@H]3C[C@@H](C(=O)NC4c5ccccc5-c5ccccc54)N(C(=O)[C@@H](NC(=O)[C@H](C)NC)C(C)(C)C)C3)cc2)C[C@H]1C(=O)NC1c2ccccc2-c2ccccc21)C(C)(C)C [Compound P3-2]	–
0.08	CN[C@@H](C)C(=O)N[C@H](C(=O)N1C[C@@H](NC(=O)[C@@H]2[C@@H]3CC[C@@H](C3)[C@@H]2C(=O)N[C@H]2C[C@@H](C(=O)N[C@@H]3CCCc4ccccc43)N(C(=O)[C@@H](NC(=O)[C@H](C)NC)C(C)(C)C)C2)C[C@H]1C(=O)N[C@@H]1CCCc2ccccc21)C(C)(C)C [Compound P3-34]	–
0.063	CN[C@@H](C)C(=O)N[C@H](C(=O)N1C[C@@H](NC(=O)c2cc(C(=O)N[C@H]3C[C@@H](C(=O)N[C@H](C)c4ccccc4)N(C(=O)[C@@H](NC(=O)[C@H](C)NC)C(C)C)C3)[nH]n2)C[C@H]1C(=O)N[C@H](C)c1ccccc1)C(C)C [Compound P3-82]	–
0.017	CN[C@@H](C)C(=O)N[C@H](C(=O)N1C[C@@H](NC(=O)CC(C)(C)CC(=O)N[C@H]2C[C@@H](C(=O)N[C@@H]3CCCc4ccccc43)N(C(=O)[C@@H](NC(=O)[C@H](C)NC)C(C)(C)C)C2)C[C@H]1C(=O)N[C@@H]1CCCc2ccccc21)C(C)(C)C [Compound P3-33]	–
0.086	C#CC[C@H](NC(=O)[C@H](C)NC)C(=O)N1C[C@@H](NC(=O)N[C@H]2C[C@@H](C(=O)N[C@@H]3CCCc4ccccc43)N(C(=O)[C@H](CC#C)NC(=O)[C@H](C)NC)C2)CC1C(=O)N[C@@H]1CCCc2ccccc21 (stereo partly drawn) [Compound P3-9]	–
